Test results taken from patent publication US20250241347A1, “COMPOSITIONS AND METHODS FOR TASTE MODULATION” (INTERNATIONAL FLAVORS & FRAGRANCES INC., priority 2019, published 2025).

Columns and labels:
[1] = Taste modulation in applications (Table 3), malic/citric acid base; settings: base malic acid 1000 ppm and citric acid 2000 ppm in water; 1 ppm, composition composed only of wogonin
[2] = Masking effect on sorbic acid, trained panel; set-up: species or system human; settings: base sorbic acid 150 ppm in water, test sample 0.5 ppm
Source text: (§1) Preparation of Test Samples: […], oroxylin A-7 glucouronide, wogonoside, baicalein, oroxylin A and wogonin were purchased commercially. S. baicalensis extract (“Extract”) and cabohydrase-treated S. baicalensis extract (“Treated Extract”) were obtained as above in Example 1.
(§2) Subsequently, all compounds and extracts were applied to different bases for evaluating their off-taste masking functions.
(§3) Testing Procedure: The masking effects on the off-tastes (bitterness, sourness, astringency, lingering and drying aftertaste, etc.) associated with various food components was evaluated by a group of 16 trained panelist. Each provided a rank of masking intensity using the intensity scales of 0 to 5, where 0 represents “no masking effect,” 1 represents “minimal masking intensity” and 5 represents “the most masking intensity.” The average of the reported making intensity is presented in the following examples.
A base solution of sorbic acid was prepared in water (150 ppm). […] The flavor profile of the sorbic acid solutions with compounds or extracts were further evaluated and is reported in the following: […]

[3] = Taste modulating activity of the individual compounds; settings: individual compounds, Example 1
Protocol: With bio-transformation, most baicalin was converted to baicalein; oroxylin A glucuronide was converted to oroxylin A; and wogonoside was converted to wogonin. The activity of the individual compounds was also analyzed for taste modulating activity.

[4] = Masking effect on Reb A, trained panel; set-up: species or system human; settings: base Reb A 200 ppm in water; for Masking Intensity: panel average, scale 0-5
Source text: as §1, §2, §3
A base solution of Reb A was prepared in water (200 ppm). […] The flavor profile of the Reb A solutions with compounds or extracts were further evaluated and is reported in the following: […]

[5] = Masking effect on Acesulfame-K, trained panel; set-up: species or system human; settings: base Acesulfame-K 300 ppm in water, test sample 0.5 ppm
Source text: as §1, §2, §3
A base solution of Acesulfame-K was prepared in water (300 ppm). […] The flavor profile of the Acesulfame-K solutions with compounds or extracts were further evaluated and is reported in the following: […]

[6] = Masking effect on pea protein, trained panel; set-up: species or system human; settings: base TRUPRO pea protein 5% in water, test sample 0.5 ppm
Source text: as §1, §2, §3
A base solution of TRUPRO® pea protein (Solae LLC) was prepared in water (5%). […] The flavor profile of the pea protein solutions with compounds or extracts were further evaluated and is reported in the following: […]

[7] = Masking effect on Reb M, trained panel; set-up: species or system human; settings: base Reb M 200 ppm in water; for Masking Intensity: panel average, scale 0-5
Source text: as §1, §2, §3
A base solution of Reb M was prepared in water (200 ppm). […] The flavor profile of the Reb M solutions with compounds or extracts were further evaluated and is reported in the following: […]

[8] = Masking effect on citric acid, trained panel; set-up: species or system human; settings: base citric acid 300 ppm in water, test sample 0.5 ppm
Source text: as §1, §2, §3
A base solution of citric acid was prepared in water (300 ppm). […] The flavor profile of the citric acid solutions with compounds or extracts were further evaluated and is reported in the following: […]

[9] = Masking effect on benzoic acid, trained panel; set-up: species or system human; settings: base benzoic acid 250 ppm in water, test sample 0.5 ppm
Source text: as §1, §2, §3
A base solution of benzoic acid was prepared in water (250 ppm). […] The flavor profile of the benzoic acid solutions with compounds or extracts was further evaluated and is reported in the following: […]

For `COc1c(O)cc(O)c2c(=O)cc(-c3ccccc3)oc12` [Wogonin, 5,7-dihydroxy-8-methoxyflavone], the Functions [1] was “Masked the sharp sourness, added mouthfeel”, the “Flavor Profile” value [2] was “Reduced astringency, sourness, and drying” and the “Masking Intensity” value ([2]; panel average, scale 0-5) was 5. For the same molecule, the taste modulating activity [3] was “more active”, the “Masking Intensity” value ([4]; test sample 0.001 ppm) was 1 and the “Flavor Profile” value ([4]; test sample 0.01 ppm) was “Slightly reduced astringency, licorice flavor”. For the same molecule, the “Masking Intensity” value ([4]; test sample 0.01 ppm) was 2, the “Masking Intensity” value ([4]; test sample 0.1 ppm) was 3 and the “Masking Intensity” value ([4]; test sample 0.5 ppm) was 4. For the same molecule, the “Masking Intensity” value ([4]; test sample 1 ppm) was 5, the “Masking Intensity” value ([4]; test sample 10 ppm) was 3 and the “Masking Intensity” value ([4]; test sample 50 ppm) was 2. The “Flavor Profile” value [5] was “Reduced bitterness and lingering aftertaste,”, the “Masking Intensity” value ([5]; panel average, scale 0-5) was 4 and the “Flavor Profile” value [6] was “Reduced astringency and bitterness, less”. For the same molecule, the “Masking Intensity” value ([6]; panel average, scale 0-5) was 5, the “Masking Intensity” value ([7]; test sample 0.01 ppm) was 1 and the “Flavor Profile” value ([7]; test sample 0.1 ppm) was “Slightly reduced bitterness and lingering”. For the same molecule, the “Masking Intensity” value ([7]; test sample 0.1 ppm) was 3, the “Flavor Profile” value ([7]; test sample 0.5 ppm) was “Reduced bitterness and lingering aftertaste,” and the “Masking Intensity” value ([7]; test sample 0.5 ppm) was 5. For the same molecule, the “Flavor Profile” value ([7]; test sample 10 ppm) was “Slightly reduced lingering aftertaste, very”, the “Masking Intensity” value ([7]; test sample 10 ppm) was 2 and the “Flavor Profile” value ([7]; test sample 50 ppm) was “Slightly reduced lingering aftertaste,”. The “Masking Intensity” value ([7]; test sample 50 ppm) was 1, the “Flavor Profile” value [8] was “Reduced tart taste, more pleasant” and the “Masking Intensity” value ([8]; panel average, scale 0-5) was 4. For the same molecule, the “Flavor Profile” value [9] was “Reduced astringency, sourness, and drying” and the “Masking Intensity” value ([9]; panel average, scale 0-5) was 5.
